pIC50: −log10 of the molar value.
Experiments:
[1] = target: B-Raf (Homo sapiens, UniProt P15056); assay: Kinase activity assay, B-Raf; type: biochemical; conditions: read-out: activity toward kinase B-Raf, IC50
[2] = target: Kdr (Homo sapiens, UniProt P35968); assay: Kinase activity assay, Kdr
[3] = target: T1, A-Raf (Homo sapiens, UniProt P10398); assay: Kinase activity assay, A-Raf
T1 sequence (P10398 1-606): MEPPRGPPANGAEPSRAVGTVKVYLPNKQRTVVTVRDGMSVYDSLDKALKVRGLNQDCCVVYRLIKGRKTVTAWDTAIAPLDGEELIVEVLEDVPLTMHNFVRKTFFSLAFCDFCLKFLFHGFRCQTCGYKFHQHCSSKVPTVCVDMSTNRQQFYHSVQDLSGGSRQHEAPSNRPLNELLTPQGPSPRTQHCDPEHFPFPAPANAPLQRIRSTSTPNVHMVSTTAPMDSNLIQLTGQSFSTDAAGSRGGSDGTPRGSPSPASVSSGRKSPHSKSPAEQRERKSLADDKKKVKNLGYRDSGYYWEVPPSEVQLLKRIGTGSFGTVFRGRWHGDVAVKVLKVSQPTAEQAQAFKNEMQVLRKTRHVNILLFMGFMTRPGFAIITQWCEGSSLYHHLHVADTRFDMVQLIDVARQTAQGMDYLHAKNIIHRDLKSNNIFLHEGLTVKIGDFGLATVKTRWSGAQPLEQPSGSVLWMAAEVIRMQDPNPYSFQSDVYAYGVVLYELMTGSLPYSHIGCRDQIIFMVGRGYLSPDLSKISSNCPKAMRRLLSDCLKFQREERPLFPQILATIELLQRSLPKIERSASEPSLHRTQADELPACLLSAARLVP

[4] = target: T2, TEC (Homo sapiens, UniProt P42680); assay: Kinase activity assay, TEC
T2 sequence (P42680 1-631): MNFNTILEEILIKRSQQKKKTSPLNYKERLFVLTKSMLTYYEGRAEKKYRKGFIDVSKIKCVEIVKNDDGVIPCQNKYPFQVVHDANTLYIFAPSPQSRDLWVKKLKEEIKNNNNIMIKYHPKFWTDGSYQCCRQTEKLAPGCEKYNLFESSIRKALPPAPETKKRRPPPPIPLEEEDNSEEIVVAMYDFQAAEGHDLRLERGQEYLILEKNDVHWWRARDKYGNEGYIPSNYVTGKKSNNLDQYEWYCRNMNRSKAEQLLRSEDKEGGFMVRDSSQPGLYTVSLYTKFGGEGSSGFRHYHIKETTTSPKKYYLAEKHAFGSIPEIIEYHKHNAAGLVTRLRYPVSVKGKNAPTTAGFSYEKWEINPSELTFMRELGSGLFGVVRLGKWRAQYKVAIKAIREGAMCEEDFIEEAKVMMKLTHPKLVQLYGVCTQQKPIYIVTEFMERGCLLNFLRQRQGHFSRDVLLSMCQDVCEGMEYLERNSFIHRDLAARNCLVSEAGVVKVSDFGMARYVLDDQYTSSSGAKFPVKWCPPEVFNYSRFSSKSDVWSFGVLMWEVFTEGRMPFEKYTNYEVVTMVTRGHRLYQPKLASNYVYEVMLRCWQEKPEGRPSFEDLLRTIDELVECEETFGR

[5] = target: C-Raf (Homo sapiens, UniProt P04049); assay: Kinase activity assay, C-Raf
Chain of C-Raf (P04049 whole entry): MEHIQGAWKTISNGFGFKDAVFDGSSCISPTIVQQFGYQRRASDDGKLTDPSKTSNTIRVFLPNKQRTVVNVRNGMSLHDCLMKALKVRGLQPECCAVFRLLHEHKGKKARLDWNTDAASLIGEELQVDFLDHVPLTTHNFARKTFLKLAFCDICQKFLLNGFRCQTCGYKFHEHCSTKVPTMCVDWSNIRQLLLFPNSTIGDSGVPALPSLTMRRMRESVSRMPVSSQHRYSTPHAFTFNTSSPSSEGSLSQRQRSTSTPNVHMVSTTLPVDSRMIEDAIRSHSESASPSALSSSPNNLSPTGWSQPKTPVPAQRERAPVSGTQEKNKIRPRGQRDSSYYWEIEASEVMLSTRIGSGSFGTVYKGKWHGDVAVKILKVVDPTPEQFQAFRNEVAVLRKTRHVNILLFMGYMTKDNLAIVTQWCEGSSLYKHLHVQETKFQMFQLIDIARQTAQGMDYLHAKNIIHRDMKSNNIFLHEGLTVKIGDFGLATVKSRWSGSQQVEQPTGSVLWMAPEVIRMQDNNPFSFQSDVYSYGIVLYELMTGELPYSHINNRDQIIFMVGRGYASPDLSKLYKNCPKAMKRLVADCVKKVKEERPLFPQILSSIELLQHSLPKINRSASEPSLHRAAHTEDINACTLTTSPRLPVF

[6] = target: Kit (Homo sapiens, UniProt P10721); assay: Kinase activity assay, Kit
[7] = target: B-Raf V600E (Homo sapiens, UniProt P15056, V600E); assay: Kinase activity assay, B-Raf V600E; type: biochemical; conditions: read-out: activity toward kinase B-Raf V600E, IC50
Chain of B-Raf V600E (P15056 whole entry V600E): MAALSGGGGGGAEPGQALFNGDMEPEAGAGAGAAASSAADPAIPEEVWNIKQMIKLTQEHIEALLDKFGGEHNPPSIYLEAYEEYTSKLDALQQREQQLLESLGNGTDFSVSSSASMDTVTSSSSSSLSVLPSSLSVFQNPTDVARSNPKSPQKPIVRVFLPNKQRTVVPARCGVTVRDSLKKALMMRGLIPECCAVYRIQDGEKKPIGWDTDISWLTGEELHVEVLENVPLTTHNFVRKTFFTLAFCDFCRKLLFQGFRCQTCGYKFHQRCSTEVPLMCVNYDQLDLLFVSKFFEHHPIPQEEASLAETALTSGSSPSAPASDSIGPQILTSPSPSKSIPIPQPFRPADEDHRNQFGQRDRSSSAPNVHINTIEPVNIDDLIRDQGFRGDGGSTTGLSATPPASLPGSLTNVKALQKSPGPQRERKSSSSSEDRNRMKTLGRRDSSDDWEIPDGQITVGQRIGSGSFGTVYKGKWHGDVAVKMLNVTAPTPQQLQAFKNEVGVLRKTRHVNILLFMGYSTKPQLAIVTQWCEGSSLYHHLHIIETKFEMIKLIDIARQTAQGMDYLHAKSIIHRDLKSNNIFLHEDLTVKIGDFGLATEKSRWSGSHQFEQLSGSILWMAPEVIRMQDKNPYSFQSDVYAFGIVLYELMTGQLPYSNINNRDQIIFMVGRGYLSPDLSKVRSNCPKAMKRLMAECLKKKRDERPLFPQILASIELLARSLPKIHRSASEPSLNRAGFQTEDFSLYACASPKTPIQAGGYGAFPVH

[8] = target: Src (Homo sapiens, UniProt P12931); assay: Kinase activity assay, Src
Chain of Src (P12931 whole entry): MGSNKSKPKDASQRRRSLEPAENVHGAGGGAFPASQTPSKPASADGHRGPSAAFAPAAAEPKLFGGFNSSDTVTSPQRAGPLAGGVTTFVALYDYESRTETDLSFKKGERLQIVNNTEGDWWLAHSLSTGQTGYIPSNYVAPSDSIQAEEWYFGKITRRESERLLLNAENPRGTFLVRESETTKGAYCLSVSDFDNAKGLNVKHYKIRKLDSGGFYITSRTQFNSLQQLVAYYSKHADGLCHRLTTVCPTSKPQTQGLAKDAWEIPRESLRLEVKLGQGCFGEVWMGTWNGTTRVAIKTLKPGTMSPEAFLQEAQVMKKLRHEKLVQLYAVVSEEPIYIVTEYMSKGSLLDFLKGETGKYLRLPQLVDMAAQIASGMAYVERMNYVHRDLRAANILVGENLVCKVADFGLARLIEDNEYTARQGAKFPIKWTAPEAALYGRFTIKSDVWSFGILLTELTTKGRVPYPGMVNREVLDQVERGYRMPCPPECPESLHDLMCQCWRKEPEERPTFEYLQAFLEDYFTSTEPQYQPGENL

[9] = target: MAP4K4 (Homo sapiens, UniProt O95819); assay: Kinase activity assay, MAP4K4
Chain of MAP4K4 (O95819 whole entry): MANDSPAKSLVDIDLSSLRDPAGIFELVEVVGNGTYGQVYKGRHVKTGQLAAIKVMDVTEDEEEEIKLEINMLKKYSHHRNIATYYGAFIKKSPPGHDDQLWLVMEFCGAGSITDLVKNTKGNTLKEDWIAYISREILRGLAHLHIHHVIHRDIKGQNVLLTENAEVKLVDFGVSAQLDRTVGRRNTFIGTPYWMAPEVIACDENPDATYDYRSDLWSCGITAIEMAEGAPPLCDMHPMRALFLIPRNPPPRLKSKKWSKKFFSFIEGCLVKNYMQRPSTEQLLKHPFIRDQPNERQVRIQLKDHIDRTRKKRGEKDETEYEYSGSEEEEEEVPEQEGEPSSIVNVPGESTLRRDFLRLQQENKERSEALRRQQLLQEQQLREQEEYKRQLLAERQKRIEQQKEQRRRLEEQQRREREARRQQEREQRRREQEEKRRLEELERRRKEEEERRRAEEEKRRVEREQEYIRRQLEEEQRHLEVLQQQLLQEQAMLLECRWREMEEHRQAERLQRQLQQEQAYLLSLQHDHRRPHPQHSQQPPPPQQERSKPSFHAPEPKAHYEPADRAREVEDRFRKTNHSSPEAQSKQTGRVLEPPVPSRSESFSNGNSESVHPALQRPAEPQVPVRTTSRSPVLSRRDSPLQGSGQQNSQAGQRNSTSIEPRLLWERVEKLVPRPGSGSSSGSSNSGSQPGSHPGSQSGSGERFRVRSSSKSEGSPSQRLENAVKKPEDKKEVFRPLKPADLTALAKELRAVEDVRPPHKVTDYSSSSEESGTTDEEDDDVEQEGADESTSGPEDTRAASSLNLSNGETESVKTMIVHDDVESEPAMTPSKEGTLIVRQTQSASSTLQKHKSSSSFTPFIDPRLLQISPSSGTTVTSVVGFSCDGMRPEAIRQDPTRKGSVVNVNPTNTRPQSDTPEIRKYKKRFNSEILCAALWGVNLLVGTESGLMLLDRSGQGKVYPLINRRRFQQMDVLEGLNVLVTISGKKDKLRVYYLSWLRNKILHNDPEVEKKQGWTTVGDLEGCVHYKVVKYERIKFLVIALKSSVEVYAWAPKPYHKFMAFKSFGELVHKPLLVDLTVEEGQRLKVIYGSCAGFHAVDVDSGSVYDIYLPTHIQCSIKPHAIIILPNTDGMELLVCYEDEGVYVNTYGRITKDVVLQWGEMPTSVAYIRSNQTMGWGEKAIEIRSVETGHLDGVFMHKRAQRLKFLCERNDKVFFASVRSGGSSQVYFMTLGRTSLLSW

[10] = target: Btk (Homo sapiens, UniProt Q06187); assay: Kinase activity assay, Btk
Chain of Btk (Q06187 whole entry): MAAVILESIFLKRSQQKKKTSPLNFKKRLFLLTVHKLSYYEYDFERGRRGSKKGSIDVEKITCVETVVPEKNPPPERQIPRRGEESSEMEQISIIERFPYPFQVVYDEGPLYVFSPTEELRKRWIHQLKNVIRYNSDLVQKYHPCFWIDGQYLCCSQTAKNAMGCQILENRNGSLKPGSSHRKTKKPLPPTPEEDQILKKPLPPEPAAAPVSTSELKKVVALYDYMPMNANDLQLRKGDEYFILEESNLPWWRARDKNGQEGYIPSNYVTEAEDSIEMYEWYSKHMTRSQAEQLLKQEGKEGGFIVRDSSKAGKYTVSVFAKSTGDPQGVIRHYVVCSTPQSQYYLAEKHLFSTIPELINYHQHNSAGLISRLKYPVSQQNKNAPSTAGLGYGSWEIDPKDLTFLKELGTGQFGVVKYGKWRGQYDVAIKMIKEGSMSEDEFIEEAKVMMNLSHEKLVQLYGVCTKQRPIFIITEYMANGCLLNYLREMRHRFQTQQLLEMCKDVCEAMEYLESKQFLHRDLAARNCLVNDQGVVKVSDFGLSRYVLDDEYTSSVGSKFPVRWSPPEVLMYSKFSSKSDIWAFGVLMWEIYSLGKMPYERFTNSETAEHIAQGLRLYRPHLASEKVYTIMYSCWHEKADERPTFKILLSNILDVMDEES

[11] = target: Fms (Homo sapiens, UniProt P07333); assay: Kinase activity assay, Fms
Chain of Fms (P07333 20-972): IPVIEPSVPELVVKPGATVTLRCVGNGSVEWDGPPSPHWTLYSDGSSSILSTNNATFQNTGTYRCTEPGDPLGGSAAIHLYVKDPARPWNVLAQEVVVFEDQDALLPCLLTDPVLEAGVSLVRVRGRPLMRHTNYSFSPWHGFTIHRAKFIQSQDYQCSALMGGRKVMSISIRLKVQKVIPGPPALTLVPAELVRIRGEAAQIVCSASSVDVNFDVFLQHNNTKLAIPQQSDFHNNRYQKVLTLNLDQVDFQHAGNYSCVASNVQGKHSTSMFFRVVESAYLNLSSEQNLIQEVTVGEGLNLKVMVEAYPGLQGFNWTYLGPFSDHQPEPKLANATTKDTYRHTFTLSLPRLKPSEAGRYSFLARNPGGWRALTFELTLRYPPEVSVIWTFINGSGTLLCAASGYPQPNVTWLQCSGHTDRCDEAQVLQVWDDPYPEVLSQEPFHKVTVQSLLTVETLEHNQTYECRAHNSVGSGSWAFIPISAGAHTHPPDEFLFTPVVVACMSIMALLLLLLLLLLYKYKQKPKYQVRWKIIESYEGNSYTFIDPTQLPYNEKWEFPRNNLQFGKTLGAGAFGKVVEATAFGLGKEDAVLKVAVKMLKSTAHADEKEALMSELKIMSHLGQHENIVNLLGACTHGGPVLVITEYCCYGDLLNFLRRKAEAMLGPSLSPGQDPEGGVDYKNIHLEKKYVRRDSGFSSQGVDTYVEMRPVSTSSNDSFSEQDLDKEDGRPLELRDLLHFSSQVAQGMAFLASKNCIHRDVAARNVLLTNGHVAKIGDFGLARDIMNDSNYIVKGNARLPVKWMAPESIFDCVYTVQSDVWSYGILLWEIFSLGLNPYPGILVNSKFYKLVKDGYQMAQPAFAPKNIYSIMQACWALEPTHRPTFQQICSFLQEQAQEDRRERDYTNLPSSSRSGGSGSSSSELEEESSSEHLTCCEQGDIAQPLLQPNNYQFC

Chain of B-Raf (P15056 whole entry): as the sequence (P15056 whole entry V600E) above, with E600V counted along it

SMILES | pIC50 [1] | pIC50 [2] | pIC50 [3] | pIC50 [4] | pIC50 [5] | pIC50 [6] | pIC50 [7] | pIC50 [8] | pIC50 [9] | pIC50 [10] | pIC50 [11]
N#Cc1ccnc2[nH]cc(C(=O)c3c(F)ccc(NS(=O)(=O)c4ccccc4F)c3F)c12 [P-2020, N-[3-(4-Cyano-1H-pyrrolo[2,3-b]pyridine-3-carbonyl)-2,4-difluoro-phenyl]-2-fluoro-benzenesulfonamide] | ≥ 5.00 | ≥ 5.00 | ≥ 5.00 | ≥ 5.00 | ≥ 5.00 | ≥ 5.00 | ≥ 5.00 | ≥ 5.00 | – | – | –
O=C(c1c(F)ccc(NS(=O)(=O)c2ccccn2)c1F)c1c[nH]c2ncc(Cl)cc12 [P-2067, Pyridine-2-sulfonic acid [3-(5-chloro-1H-pyrrolo[2,3-b]pyridine-3-carbonyl)-2,4-difluoro-phenyl]-amide] | ≥ 5.00 | ≥ 5.00 | ≥ 5.00 | ≥ 5.00 | ≥ 5.00 | – | ≥ 5.00 | ≥ 5.00 | ≥ 5.00 | – | –
N#Cc1cnc2[nH]cc(C(=O)c3cccc(NS(=O)(=O)c4cccnc4)c3F)c2c1 [P-2086, Pyridine-3-sulfonic acid [3-(5-cyano-1H-pyrrolo[2,3-b]pyridine-3-carbonyl)-2-fluoro-phenyl]-amide] | – | – | – | – | – | – | – | – | – | ≥ 5.00 | –
O=C(c1cc(NS(=O)(=O)c2ccc(F)cc2)ccc1F)c1c[nH]c2ncccc12 [P-2114, 4-Fluoro-N-[4-fluoro-3-(1H-pyrrolo[2,3-b]pyridine-3-carbonyl)-phenyl]-benzenesulfonamide] | – | ≥ 5.00 | – | – | – | ≥ 5.00 | – | – | – | ≥ 5.00 | ≥ 5.00
CCCS(=O)(=O)Nc1ccc(F)c(C(=O)c2c[nH]c3ncc(-c4cnn(CC(C)C)c4)cc23)c1F [P-2157, Propane-1-sulfonic acid {2,4-difluoro-3-[5-(1-isobutyl-1H-pyrazol-4-yl)-1H-pyrrolo[2,3-b]pyridine-3-carbonyl]-phenyl}-amide] | – | ≥ 5.00 | – | – | – | ≥ 5.00 | ≥ 5.00 | ≥ 5.00 | – | ≥ 5.00 | ≥ 5.00
CCCS(=O)(=O)Nc1ccc(F)c(C(=O)c2c[nH]c3ncc(-c4c(C)nn(C)c4C)cc23)c1F [P-2158, Propane-1-sulfonic acid {2,4-difluoro-3-[5-(1,3,5-trimethyl-1H-pyrazol-4-yl)-1H-pyrrolo[2,3-b]pyridine-3-carbonyl]-phenyl}-amide] | – | ≥ 5.00 | – | – | – | ≥ 5.00 | ≥ 5.00 | ≥ 5.00 | – | ≥ 5.00 | ≥ 5.00
CCCS(=O)(=O)Nc1ccc(F)c(C(=O)c2c[nH]c3ncc(-c4ccc(F)c(OC)c4)cc23)c1F [P-2159, Propane-1-sulfonic acid {2,4-difluoro-3-[5-(4-fluoro-3-methoxy-phenyl)-1H-pyrrolo[2,3-b]pyridine-3-carbonyl]-phenyl}-amide] | – | ≥ 5.00 | – | – | – | ≥ 5.00 | ≥ 5.00 | ≥ 5.00 | – | ≥ 5.00 | ≥ 5.00
CCCS(=O)(=O)Nc1ccc(F)c(C(=O)c2c[nH]c3ncc(-c4ccc(F)c(C(F)(F)F)c4)cc23)c1F [P-2160, Propane-1-sulfonic acid {2,4-difluoro-3-[5-(4-fluoro-3-trifluoromethyl-phenyl)-1H-pyrrolo[2,3-b]pyridine-3-carbonyl]-phenyl}-amide] | – | ≥ 5.00 | – | – | – | – | ≥ 5.00 | – | – | ≥ 5.00 | –
CCCS(=O)(=O)Nc1ccc(F)c(C(=O)c2c[nH]c3ncc(CCCN4CCOCC4)cc23)c1F [P-2247, Propane-1-sulfonic acid {2,4-difluoro-3-[5-(3-morpholin-4-yl-propyl)-1H-pyrrolo[2,3-b]pyridine-3-carbonyl]-phenyl}-amide] | ≥ 5.00 | ≥ 5.00 | ≥ 5.00 | ≥ 5.00 | ≥ 5.00 | – | ≥ 5.00 | – | ≥ 5.00 | – | –
Cc1cnc2[nH]cc(C(=O)c3c(F)ccc(NS(=O)(=O)C(C)C)c3F)c2c1 [P-2278, Propane-2-sulfonic acid [2,4-difluoro-3-(5-methyl-1H-pyrrolo[2,3-b]pyridine-3-carbonyl)-phenyl]-amide] | ≥ 5.00 | ≥ 5.00 | ≥ 5.00 | ≥ 5.00 | ≥ 5.00 | – | ≥ 5.00 | – | ≥ 5.00 | – | –
N#Cc1cnc2[nH]cc(C(=O)c3c(F)ccc(NS(=O)(=O)C4CCC4)c3F)c2c1 [P-2353, Cyclobutanesulfonic acid [3-(5-cyano-1H-pyrrolo[2,3-b]pyridine-3-carbonyl)-2,4-difluoro-phenyl]-amide] | ≥ 5.00 | ≥ 5.00 | ≥ 5.00 | ≥ 5.00 | ≥ 5.00 | ≥ 5.00 | ≥ 5.00 | – | ≥ 5.00 | – | –

Next, values leading:

pIC50 [1] | pIC50 [2] | pIC50 [3] | pIC50 [4] | pIC50 [5] | pIC50 [6] | pIC50 [7] | pIC50 [8] | pIC50 [9] | pIC50 [10] | pIC50 [11] | SMILES
≥ 5.00 | ≥ 5.00 | ≥ 5.00 | ≥ 5.00 | ≥ 5.00 | ≥ 5.00 | ≥ 5.00 | ≥ 5.00 | ≥ 5.00 | – | – | O=C(c1c(F)ccc(NS(=O)(=O)C2CCC2)c1F)c1c[nH]c2ncc(Cl)cc12 [P-2354, Cyclobutanesulfonic acid [3-(5-chloro-1H-pyrrolo[2,3-b]pyridine-3-carbonyl)-2,4-difluoro-phenyl]-amide]
– | – | – | – | ≥ 5.00 | – | ≥ 5.00 | – | – | ≥ 5.00 | – | CCS(=O)(=O)Nc1cccc(C(=O)c2c[nH]c3ncc(C#N)cc23)c1F [P-2410, Ethanesulfonic acid [3-(5-cyano-1H-pyrrolo[2,3-b]pyridine-3-carbonyl)-2-fluoro-phenyl]-amide]
– | – | – | – | – | – | ≥ 5.00 | ≥ 5.00 | – | ≥ 5.00 | ≥ 5.00 | CCCS(=O)(=O)Nc1ccc(F)c(C(=O)c2c[nH]c3ncc(-c4cnn(C)c4)cc23)c1Cl [P-2429, Propane-1-sulfonic acid {2-chloro-4-fluoro-3-[5-(1-methyl-1H-pyrazol-4-yl)-1H-pyrrolo[2,3-b]pyridine-3-carbonyl]-phenyl}-amide]
– | ≥ 5.00 | – | – | – | ≥ 5.00 | ≥ 5.00 | ≥ 5.00 | – | ≥ 5.00 | ≥ 5.00 | Cn1cc(-c2cnc3[nH]cc(C(=O)c4cc(NS(=O)(=O)C5CC5)ccc4F)c3c2)cn1 [P-2433, Cyclopropanesulfonic acid {4-fluoro-3-[5-(1-methyl-1H-pyrazol-4-yl)-1H-pyrrolo[2,3-b]pyridine-3-carbonyl]-phenyl}-amide]
– | ≥ 5.00 | – | – | – | ≥ 5.00 | ≥ 5.00 | – | – | ≥ 5.00 | ≥ 5.00 | CCCS(=O)(=O)Nc1cccc(C(=O)c2c[nH]c3ncc(Cl)cc23)c1 [P-2449, Propane-1-sulfonic acid [3-(5-chloro-1H-pyrrolo[2,3-b]pyridine-3-carbonyl)-phenyl]-amide]
– | ≥ 5.00 | – | – | – | ≥ 5.00 | ≥ 5.00 | – | – | ≥ 5.00 | ≥ 5.00 | Cn1cc(-c2cnc3[nH]cc(C(=O)c4cccc(NS(=O)(=O)C5CC5)c4)c3c2)cn1 [P-2456, Cyclopropanesulfonic acid {3-[5-(1-methyl-1H-pyrazol-4-yl)-1H-pyrrolo[2,3-b]pyridine-3-carbonyl]-phenyl}-amide]
– | ≥ 5.00 | – | – | – | – | – | – | – | ≥ 5.00 | ≥ 5.00 | CN(C)S(=O)(=O)Nc1ccc(F)c(C(=O)c2c[nH]c3ncccc23)c1 [P-2469, N,N-dimethylamino-sulfonic acid [4-fluoro-3-(1H-pyrrolo[2,3-b]pyridine-3-carbonyl)-phenyl]-amide]

From patent publication US20120122860A1, “SOLID FORMS OF SULFONAMIDES AND AMINO ACIDS” (Plexxikon, Inc., priority 2009, published 2012)
